Measurements from patent publication US20250268816A1, “EXTENDED-RELEASE FORMULATION CONTAINING CRESOL” (UNIVERSITY OF MARYLAND, BALTIMORE, priority 2022, published 2025).
Where two headings read alike, the source gives them in different places.

Columns and labels:
[1] = in vivo; cited from earlier work
[2] = Drug release study from the in situ gelling system (ISFGSs); format: physicochemical
Protocol: FIG. 29 is a graph showing the results of a dexamethasone release study using 6 wt % Dex and 24 wt % Polymer 80 μL.
FIGS. 30A and 30B are graphs showing the effect of polymer composition on the cumulative release of remdesivir from ISFGSs; 3 wt % 80 and 160 uL-24 wt %.
FIGS. 31A and 31B are graphs showing the effect of polymer composition on the cumulative release of GS-441524 from 80 μL of ISFGSs.
FIGS. 32A and 32B are graphs showing the effect of polymer composition on the cumulative release of GS-441524 from 160 μL of ISFGSs.
FIG. 33A and FIG. 33B are a set of graphs showing the effect of polymer composition and solution volume on the cumulative release of artemisinin from ISFGSs.
FIGS. 37A and 37B are graphs showing the cumulative release of gilteritinib from ISFGSs: Gilteritinib 4 wt % Release 80 μL PLGA 50/50 depots.

[3] = human patients; cited from earlier work
[4] = tested on: feline infectious peritonitis (FIP); conditions: cited from earlier work
[5] = ART838 release study from ISFGSs into PBS; format: physicochemical
From the text: ISFGS turbidity increased with time and with ART838 loading content, and all loaded ISDs […]. The diffusion of the solvents from the depot in the first week was not sufficient for ART838 to diffuse out of the ISFGS due to the hydrophobic interactions between ART838 and PLGA/PLA polymers. The ISFGS system is able to continually release ART838 for 1 month and the ISD form can be tuned to control ART838 release profiles.
This delayed release profile might be beneficial to potentiate antitumor responses initiated by other drug agents. Therefore it is contemplated that the polymeric formulations of the ISFGS system can be altered to tune the ART838 release curve, aiming to modulate the initiation of release while maintaining the stable release observed here. In addition, the ISFGSs can be used with other dimeric ART analogs or other drug compounds, both for administration and for research purposes, for example to analyze cytotoxicity and bioeffects of the loaded ISFGSs using in vitro cell culture models.

[6] = in mice; cited from earlier work
[7] = In vitro cumulative release of insulin from ISFGSs; format: physicochemical; conditions: for time of continuous insulin release: from ISFGSs
From the text: The effect of formulation volume in vitro was also studied.

diabetic rats = assay: Blood glucose level lowering after subcutaneous injection in diabetic rats; format: in vivo; conditions: subcutaneously injected insulin, 5 IU, within 4 h after the injection
From the text: The effect of subcutaneously injected insulin as the therapeutic agent component of the subject drug delivery system on diabetic rats was also studied. More specifically, the effect of an insulin depot prepared and delivered in accordance with the teachings of the subject invention on the cumulative release of insulin was studied.

Compound | half-life [1] [min] | release from the in situ gelling system (in words) [2] | time of continuous insulin release [7] [days] | also measured
CCC(CC)COC(=O)[C@H](C)N[P@](=O)(OC[C@H]1O[C@@](C#N)(c2ccc3c(N)ncnn23)[C@H](O)[C@@H]1O)Oc1ccccc1 [Remdesivir] | 53.4 | – | – | –
N#C[C@@]1(c2ccc3c(N)ncnn23)O[C@H](CO)[C@@H](O)[C@H]1O [GS-441524] | – | sustained release | – | half-life [3]: around 24 hours; activity against FIP in cell culture (in words) [4]: equivalent
C[C@@H]1CCC2[C@@H](C)[C@@H](CC(COP(=O)(Oc3ccccc3)Oc3ccccc3)C[C@H]3O[C@@H]4O[C@@]5(C)CCC6[C@H](C)CCC([C@H]3C)[C@]64OO5)O[C@@H]3O[C@@]4(C)CCC1[C@@]23OO4 (stereo partly drawn) [ART838] | – | – | – | time of continual ART838 release from the ISFGS system [5]: 1 month; half-life [6]: 191 min
C[C@@H]1CC[C@H]2[C@@H](C)C(=O)O[C@@H]3O[C@@]4(C)CC[C@@H]1[C@]32OO4 [artemisinin] | – | sustained release | – | –
Degludec | – | – | 7 | relative insulin release rate (in words) ([7]; comparison between ISFGS formulations): slower
insulin | 4 to 6 | – | 7 | blood glucose level (diabetic rats): about 100 mg·dL^−1
